Laboratory results reported in patent US20070099857A1, “Methods and means for inhibiting fever” (priority 2003, published 2007).

What was measured:
[1] = PGE2-induced febrile response after intracerebroventricular injection, telemetric body temperature; assay type: in vivo, mice; settings: 4 nmol PGE2 intracerebroventricular
Method: We confirmed the absence of overt physiological signaling defects by ensuring that PGE2-evoked (the missing product in mPGESl1^−/− mice that is generated following LPS challenge) pyresis was indeed intact in mPGES1^−/− mice. We performed intracerebroventricular injections of PGE2 (4 nmol in 2 μl artificial cerebrospinal fluid) and then monitored using telemetry the body temperature in awake and unrestrained animals. […] Thus, a pronounced temperature increase was seen almost immediately after the PGE2 injection. It reached its peak after 30 minutes and lasted for about 1.5 hour. To determine that the elicited febrile response was due to specific activation of PGE2 receptors and not represented an unspecific response, we injected the same amount of PGE2 into EP3 receptor^−/− mice as we had injected into mPGES-1^−/− mice.
Telemetric temperature recordings: One week prior to each experiment, a temperature transmitter (Data Science International) was implanted into the peritoneal cavity of each mouse. Recordings were made via a receiver located beneath the cage and the data were fed into a computer. Recordings started at least one hour prior to surgery or injection, and were obtained every second minute throughout the entire session.
Intracerebroventricular injections of PGE2: Mice were mounted in a stereotaxic frame under anesthesia with 1% isoflurane in a 30/70% mixture of O2/N2, and kept at 37° C. through a feedback controlled heating pad. A drill hole was made in the skull through which a 29 gauge (o.d.) needle connected by a silicon tube to a Hamilton syringe was inserted into the lateral ventricle (0.5 mm posterior to Bregma, 1 mm lateral to midline, and 2.5 mm vertical to the skull surface), and 4 nmol PGE2 in 2 μl artificial cerebrospinal fluid was injected during 1 min. Control injection consisted of artificial cerebrospinal fluid. Two minutes after the end of the injection, the needle was removed, the skin sutured, and the gas anesthesia turned off. All animals were awake within 5 min after injection and were immediately returned to their home cage for resumed body temperature recordings.

mPGES-1 = target: T1, mPGES-1 (Homo sapiens, UniProt O14684); settings: literature values (Thoren et al. 2000; Mancini et al. 2001; Quraishi et al. 2002); read-out: IC50 for inhibition of mPGES-1; cited from earlier work
T1 sequence (O14684 1-152): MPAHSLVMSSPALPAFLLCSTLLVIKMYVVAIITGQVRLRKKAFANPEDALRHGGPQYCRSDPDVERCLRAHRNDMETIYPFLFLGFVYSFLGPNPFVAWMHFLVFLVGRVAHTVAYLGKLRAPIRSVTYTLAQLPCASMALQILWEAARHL

Row | SMILES | duration of temperature increase [1] | time to peak of temperature increase after injection [1] [min] | febrile response ([1]; EP3 receptor−/− mice) | temperature elevation ([1]; mPGES+/+ mice) | febrile response ([1]; mPGES-1−/− mice) | IC50 (mPGES-1) [µM]
1 | CCCCC[C@H](O)/C=C/[C@H]1[C@H](O)CC(=O)[C@@H]1C/C=C\CCCC(=O)O (relative stereo) [PGE2, 11α, 15(S)-dihydroxy-9-ketoprosta-5-cis-13-trans-dienoic acid] | about 1.5 hour | 30 | did not display any febrile response | rapid and pronounced temperature elevation | rapid and strong febrile response | 
2 | CCCCCC=CCC=CC=CC=CC(SCC(NC(=O)CCC(N)C(=O)O)C(=O)NCC(=O)O)C(O)CCCC(=O)O [leukotriene C4, 5(S)-hydroxy-6(R)-S-glutathionyl-7,9-trans-11,14-cis-eicosa-tetraenoic acid] |  |  |  |  |  | 5
